From patent US9598433B2, “Hepatitis C virus inhibitors” (BRISTOL-MYERS SQUIBB COMPANY, priority 2012, dated 2017) come the findings set out here.

The test system of assay [1] is HCV genotype 1b (Con1) replicon in HUH-7 cells. The assay is described as follows: HCV replicon luciferase reporter assay, genotype 1b. In kind it is cell-based. Conditions: Hepatitis C virus, 72 h, genotype 1b replicon, 3 days incubation, read-out: LE_1b (EC50, range). From the text: (§1) An HCV replicon whole cell system was established as described by Lohmann V, Korner F, Koch J, Herian U, Theilmann L, Bartenschlager R., Science 285(5424):110-3 (1999) and modified to introduce a luciferase reporter, as first described by Krieger et al (Krieger N, Lohmann V, and Bartenschlager R, J. Virol. 75(10):4614-4624 (2001)). CDNA encoding a humanized form of the Renilla luciferase gene and a linker sequence fused directly to the 3′-end of the luciferase gene were introduced into the replicon construct using an Ascl restriction site located in core, directly upstream of the neomycin marker gene. The adaptive mutation at position 1179 (serine to isoleucine) was also introduced (Blight K J, Kolykhalov, A A, Rice, C M, Science 290(5498):1972-1974). A stable cell line constitutively expressing this HCV replicon construct was generated by first linearizing plasmid DNAs with ScaI. RNA transcripts were synthesized in vitro using the T7 MegaScript transcription kit (Ambion, Austin, Tex.) according to manufacturer's directions. In vitro transcripts of the cDNA were transfected into the human hepatoma cell line, HUH-7. […] Resulting cell lines were characterized for positive and negative strand RNA production and protein production over time.
(§2) HCV replicon luciferase assays were developed to monitor the inhibitory effects of compounds described in the disclosure on HCV genotypes 1a and 1b viral replication. HUH-7 cells, constitutively expressing the HCV replicon, were grown in Dulbecco's Modified Eagle Media (DMEM) (Gibco-BRL) containing 10% Fetal calf serum (FCS) (Sigma) and 1 mg/mL G418 (Gibco-BRL). Compounds were serially diluted 3 folds in DMSO for a twenty-point titration and subsequently transferred to sterile 384-well tissue-culture treated plates (Corning cat #3571). The plates were then seeded with 50 μL of cells at a density of 3.0×10^3 cells/well in DMEM containing 4% FCS (final DMSO concentration at 0.5%). After 3 days incubation at 37° C., cells were analyzed for Renilla Luciferase activity using the EnduRen as substrate (Promega cat #E6485). The EnduRen substrate was diluted in DMEM and then added to the plates to a final concentration of 7.5 μM. The plates were incubated for 2 hrs at 37° C. and then read immediately for 30 seconds with Viewlux Imager (PerkinElmer) using a luminescence program. To assess cytotoxicity of compounds, CC50 values were generated by multiplexing the EnduRen-containing plates with Cell Titer-Blue (Promega, cat # G8082). Cell-Titer Blue (3 μL) was added to each well and incubated for 8 hrs at 37° C. The fluorescence signal from each well was read, with an excitation wavelength at 525/10 nm and an emission wavelength of 598/10 nm, using the Viewlux Imager.
(§3) The EC50 values for compounds were calculated by using a four-parameter logistic equation: y=A+((B−A)/(1+((C/x)^D))), where A and B denotes minimal and maximal % inhibition, respectively, C is the EC50, D is the hill slope and x represents compound concentration.
In general terms: A replicon is a self-replicating genome or part of one, used to study replication in cells.

The subject of assay [2] is HCV genotype 1a (H77 strain) replicon in HUH-7 cells. The experiment in a line: HCV replicon luciferase reporter assay, genotype 1a. The format is cell-based. The following applies: Hepatitis C virus, 72 h, genotype 1a replicon, 3 days incubation, read-out: LE_1a (EC50, range).
From the text: as §1
A stable HCV replicon luciferase reporter cell line representing the genotype 1a H77 strain (Yanagi M, Purcell R H, Emerson S U, et al. Transcripts from a single full-length cDNA clone of hepatitis C virus are infectious when directly transfected into the liver of a chimpanzee. Proc Natl Acad Sci USA 1997; 94(16):8738-8743) was generated as described previously for the genotype 1b(Con1) replicon luciferase cell line. The replicon construct was modified by introducing mutations were introduced into the genes encoding the NS3 helicase domain (proline replaced by leucine at position 1496) and NS5A (serine to isoleucine at position 2204) to improve replication in cell culture.
as §2, §3

Broadly, the EC50 is the concentration needed to bring the measured effect to its halfway point. `CC[C@@H]1O[C@H](C)CC/C=C\[C@@H]2C[C@@]2(C(=O)NS(=O)(=O)C2(C)CC2)NC(=O)[C@@H]2C[C@@H](Oc3nc4cc(OC)ccc4nc3C(F)(F)F)CN2C(=O)[C@H]1NC(=O)OC(C)(C)C(F)(F)F` [Compound 1015, 1,1,1-trifluoro-2-methylpropan-2-yl ((2R,6S,7S,9R,13aS,14aR,16aS,Z)-7-ethyl-2-((7-methoxy-3-(trifluoromethyl)quinoxalin-2-yl)oxy)-9-methyl-14a-(((1-methylcyclopropyl)sulfonyl)carbamoyl)-5,16-dioxo-2,3,5,6,7,9,10,11,13a,14,14a,15,16,16a-tetradecahydro-1H-cyclopropa[i]pyrrolo[1,2-e][1,5,8]oxadiazacyclopentadecin-6-yl)carbamate]: the EC50 in assay [1] and in assay [2] was 0.1 to 0.5 nM throughout.

In the case of `CC[C@@H]1O[C@H](C)CC/C=C\[C@@H]2C[C@@]2(C(=O)NS(=O)(=O)C2(C)CC2)NC(=O)[C@@H]2C[C@@H](Oc3nc4cc(OC)ccc4nc3C(F)(F)F)CN2C(=O)[C@H]1NC(=O)OC(C)(C)C(C)(F)F` [Compound 1016, 3,3-difluoro-2-methylbutan-2-yl ((2R,6S,7S,9R,13aS,14aR,16aS,Z)-7-ethyl-2-((7-methoxy-3-(trifluoromethyl)quinoxalin-2-yl)oxy)-9-methyl-14a-(((1-methylcyclopropyl)sulfonyl)carbamoyl)-5,16-dioxo-2,3,5,6,7,9,10,11,13a,14,14a,15,16,16a-tetradecahydro-1H-cyclopropa[i]pyrrolo[1,2-e][1,5,8]oxadiazacyclopentadecin-6-yl)carbamate], the EC50 in assay [1] and in assay [2] was 0.1 to 0.5 nM throughout.

For `CC[C@@H]1O[C@H](C)CC/C=C\[C@@H]2C[C@@]2(C(=O)NS(=O)(=O)C2(C)CC2)NC(=O)[C@@H]2C[C@@H](Oc3nc4c(c5cc(OC)c(F)cc35)CCCO4)CN2C(=O)[C@H]1NC(=O)OC(C)(C)C(F)(F)F` [Compound 1017, 1,1,1-trifluoro-2-methylpropan-2-yl ((2R,6S,7S,9R,13aS,14aR,16aS,Z)-7-ethyl-2-((8-fluoro-9-methoxy-2,3-dihydro-1H-pyrano[2,3-c]isoquinolin-6-yl)oxy)-9-methyl-14a-(((1-methylcyclopropyl)sulfonyl)carbamoyl)-5,16-dioxo-2,3,5,6,7,9,10,11,13a,14,14a,15,16,16a-tetradecahydro-1H-cyclopropa[i]pyrrolo[1,2-e][1,5,8]oxadiazacyclopentadecin-6-yl)carbamate], the EC50 in assay [1] and in assay [2] was 0.51 to 1 nM each time.

Take `CC[C@@H]1O[C@H](C)CC/C=C\[C@@H]2C[C@@]2(C(=O)NS(=O)(=O)C2(C)CC2)NC(=O)[C@@H]2C[C@@H](Oc3cc(OC)nc4cc(OC)c(F)cc34)CN2C(=O)[C@H]1NC(=O)OC(C)(C)C(F)(F)F` [Compound 1018, 1,1,1-trifluoro-2-methylpropan-2-yl ((2R,6S,7S,9R,13aS,14aR,16aS,Z)-7-ethyl-2-((6-fluoro-2,7-dimethoxyquinolin-4-yl)oxy)-9-methyl-14a-(((1-methylcyclopropyl)sulfonyl)carbamoyl)-5,16-dioxo-2,3,5,6,7,9,10,11,13a,14,14a,15,16,16a-tetradecahydro-1H-cyclopropa[i]pyrrolo[1,2-e][1,5,8]oxadiazacyclopentadecin-6-yl)carbamate]: the EC50 in assay [1] was 0.51 to 1 nM; in assay [2], 1.01 to 5 nM.

In the case of `CC[C@@H]1O[C@H](C)CC/C=C\[C@@H]2C[C@@]2(C(=O)NS(=O)(=O)C2(C)CC2)NC(=O)[C@@H]2C[C@@H](Oc3cc(OC)nc4cc(OC)ccc34)CN2C(=O)[C@H]1NC(=O)OC(C)(C)C(F)(F)F` [Compound 1019, 1,1,1-trifluoro-2-methylpropan-2-yl ((2R,6S,7S,9R,13aS,14aR,16aS,Z)-2-((2,7-dimethoxyquinolin-4-yl)oxy)-7-ethyl-9-methyl-14a-(((1-methylcyclopropyl)sulfonyl)carbamoyl)-5,16-dioxo-2,3,5,6,7,9,10,11,13a,14,14a,15,16,16a-tetradecahydro-1H-cyclopropa[i]pyrrolo[1,2-e][1,5,8]oxadiazacyclopentadecin-6-yl)carbamate], the EC50 in assay [1] lay within 0.1 to 0.5 nM; in assay [2] it was 1.01 to 5 nM.

Regarding `CC[C@@H]1O[C@H](C)CC/C=C\[C@@H]2C[C@@]2(C(=O)NS(=O)(=O)C2(C)CC2)NC(=O)[C@@H]2C[C@@H](Oc3cc(OC)nc4cc(OC)ccc34)CN2C(=O)[C@H]1NC(=O)OC(C)(C)C(C)(F)F` [Compound 1020, 3,3-difluoro-2-methylbutan-2-yl ((2R,6S,7S,9R,13aS,14aR,16aS,Z)-2-((2,7-dimethoxyquinolin-4-yl)oxy)-7-ethyl-9-methyl-14a-(((1-methylcyclopropyl)sulfonyl)carbamoyl)-5,16-dioxo-2,3,5,6,7,9,10,11,13a,14,14a,15,16,16a-tetradecahydro-1H-cyclopropa[i]pyrrolo[1,2-e][1,5,8]oxadiazacyclopentadecin-6-yl)carbamate], the EC50 in assay [1] was in the range of 0.51 to 1 nM; in assay [2], 1.01 to 5 nM.

Regarding `COc1ccc2c(O[C@@H]3C[C@H]4C(=O)N[C@]5(C(=O)NS(=O)(=O)C6(C)CC6)C[C@H]5/C=C\CC[C@@H](C)O[C@@H](C)[C@H](NC(=O)OC(C)(C)C(F)(F)F)C(=O)N4C3)nccc2c1` [Compound 2002, 1,1,1-trifluoro-2-methylpropan-2-yl ((2R,6S,7S,9R,13aS,14aR,16aS,Z)-2-((6-methoxyisoquinolin-1-yl)oxy)-7,9-dimethyl-14a-(((1-methylcyclopropyl)sulfonyl)carbamoyl)-5,16-dioxo-2,3,5,6,7,9,10,11,13a,14,14a,15,16,16a-tetradecahydro-1H-cyclopropa[i]pyrrolo[1,2-e][1,5,8]oxadiazacyclopentadecin-6-yl)carbamate], the EC50 in assay [1] was 0.1 to 0.5 nM; in assay [2], 0.51 to 1 nM.

Regarding `COc1cnc(O[C@@H]2C[C@H]3C(=O)N[C@]4(C(=O)NS(=O)(=O)C5(C)CC5)C[C@H]4/C=C\CC[C@@H](C)O[C@@H](C)[C@H](NC(=O)OC(C)(C)C(F)(F)F)C(=O)N3C2)c2ccccc12` [Compound 2003, 1,1,1-trifluoro-2-methylpropan-2-yl ((2R,6S,7S,9R,13aS,14aR,16aS,Z)-2-((4-methoxyisoquinolin-1-yl)oxy)-7,9-dimethyl-14a-(((1-methylcyclopropyl)sulfonyl)carbamoyl)-5,16-dioxo-2,3,5,6,7,9,10,11,13a,14,14a,15,16,16a-tetradecahydro-1H-cyclopropa[i]pyrrolo[1,2-e][1,5,8]oxadiazacyclopentadecin-6-yl)carbamate], the 50% effective concentration (EC50) lay within 0.1 to 0.5 nM in assay [1] and 0.51 to 1 nM in assay [2].

On to `CCOc1cnc(O[C@@H]2C[C@H]3C(=O)N[C@]4(C(=O)NS(=O)(=O)C5(C)CC5)C[C@H]4/C=C\CC[C@@H](C)O[C@@H](C)[C@H](NC(=O)OC(C)(C)C(F)(F)F)C(=O)N3C2)c2ccccc12` [Compound 2004, 1,1,1-trifluoro-2-methylpropan-2-yl ((2R,6S,7S,9R,13aS,14aR,16aS,Z)-2-((4-ethoxyisoquinolin-1-yl)oxy)-7,9-dimethyl-14a-(((1-methylcyclopropyl)sulfonyl)carbamoyl)-5,16-dioxo-2,3,5,6,7,9,10,11,13a,14,14a,15,16,16a-tetradecahydro-1H-cyclopropa[i]pyrrolo[1,2-e][1,5,8]oxadiazacyclopentadecin-6-yl)carbamate], for which the figures for the EC50 in assay [1] and in assay [2] were 0.1 to 0.5 nM and 0.51 to 1 nM, respectively.
